Test results taken from patent US5877026A, “Analgesic peptides from venom of Grammostola spatulata and use thereof” (priority 1998, dated 1999).
Where no end group is shown, it is not given here.

Experiments:
Type in all cases: in vivo, rat
[1] = tested on: Sprague-Dawley rats; test: von Frey filament threshold
From the text: In this test filaments of increasing thickness are applied to the dorsal surface of a hindlimb until the rat either voluntarily removes the appendage with a forcible escape movement or vocalizes. The thickness of the filaments are arbitrarily labelled with a value which can be transformed into a grams force reading according to the following equation: [formula] Data are expressed either as absolute gram force values or a percentage of the maximum possible effect (MPE) as described in the following equation: [formula]

[2] = tested on: Sprague-Dawley rats; test: Hot plate threshold
Protocol: This test measures the temperature at which point a rat voluntarily removes one of its hindlimbs from the heated surface and either shakes or lick the affected appendage. The temperature of the heated surface is pre-set to the experimentally deduced value of 38° C. and a maximum cutoff value of either 53° C. or 54° C. has been used. Data is expressed either as absolute temperature in degrees C. or as percentage maximal possible effect as described by the formula [formula] (54 is substituted for 53 in the above formula if it is the maximal value.)
(§1) With minimal restraint, peptide GsAF I was injected intrathecally (i.th.) into young (75-150 gram) male Sprague-Dawley rats (Charles Rivers Laboratories, Wilmington, Mass.) into the spinal subarachnoid space between lumbar spinous processes L4 and L5 using 10 microliter Hamilton syringes equipped with 3/8 inch by 28G needles. Dosing levels were based upon concentrations deduced from ultraviolet absorbance values at 280 nm using an extinction coefficient of 18710. Injection volume was 10 microliters. The injection vehicle was saline or 0.1 %bovine serum albumin(BSA)/saline. The rats were pretreated with GsAF I 30 minutes prior to exposure to heat.
as §1, with “GsAF II” for “GsAF I”, “or 0.1% bovine” for “or 0.1 %bovine”, “GsAF II 15” for “GsAF I 30”

[3] = tested on: Sprague-Dawley rats; test: Formalin pain test; conditions: for Acute Flinches, % control / Acute Flinches, absolute level: 0-5 minutes post formalin; for Tonic Flinches, % control / Tonic Flinches, absolute level / Tonic Licking, % control / Tonic Licking, absolute level: 20-35 minutes post formalin
Protocol: The noxious stimulus for this test is the sub-cutaneous injection of a 5% solution of formalin into the dorsal surface of one of the hindlimbs of the animal. Motor activity indices used in this test are 1) the total time spent licking that appendage and 2) the total number of flinching/shaking responses of the affected appendage. Data collection is initiated immediately upon injection of the formalin solution into the limb. The acute phase response is defined by the time interval of 0-5 minutes post formalin injection. The tonic phase response is defined by the interval of 20-35 minutes post formalin injection Data collection is done in a computerized format. Expression of the data is done using either absolute values or as percent control which is defined by the level of response following injection of saline vehicle.
as §1, with “0.1% bovine” for “0.1 %bovine”, “injection with the formalin solution.” for “exposure to heat.”
as §1, with “GsAF II” for “GsAF I”, “nm as stated previously. Based upon a mass” for “nm using an extinction coefficient”, “of 3980 Da, 583 pmoles corresponds to 2.3 micrograms of GsAF II, and 2.33 nmoles corresponds to 9.3 micrograms of GsAF II.” for “of 18710.”, “0.1 % bovine” for “0.1 %bovine”, “GsAF II 15” for “GsAF I 30”, “to injection with formalin.” for “to exposure to heat.”
In addition to the above analyses, 180 pmoles (666 nanograms) of GsAF I was administered 5 minutes after injection of 5% formalin and the tonic phase responses were recorded as described previously. The highly efficacious activity of GsAF I was retained. Tonic flinch response was inhibited 86% (i.e. 14% of control) and tonic lick duration was reduced 91 % (i.e. 9% of control). This property has only been reported for strong analgesic compounds that interact with μ-opioid receptors.

[4] = 1.8 pmoles i.th., 30 minutes pretreatment
[5] = 18 pmoles i.th., 30 minutes pretreatment
[6] = 180 pmoles (666 nanograms) administered 5 minutes after injection of 5% formalin
[7] = 180 pmoles i.th., 30 minutes pretreatment
[8] = 583 pmoles i.th., 15 minutes pretreatment
[9] = 2.33 nmoles i.th., 15 minutes pretreatment

In the case of “Tyr-Cys-Gln-Lys-Trp-Leu-Trp-Thr-Cys-Asp-Ser-Glu-Arg-Lys-Cys-Cys-Glu-Asp-Met-Val-Cys-Arg-Leu-Trp-Cys-Lys-Lys-Arg-Leu-NH2 (YCQKWLWTCDSERKCCEDMVCRLWCKKRL-NH2; cysteine pairing not given here) [GsAF I]”, the “MPE, von Frey threshold” value ([1]; 18 picomole (6.6 nanograms), one hour pretreatment) is reported as 22 % MPE, the “MPE, von Frey threshold” value ([1]; 18 picomoles (66 nanograms), 30 minutes post injection) is reported as 24 % MPE and the confounding side effects ([1]; 180 and 18 picomoles) is reported as “No confounding side effects were present”. The “MPE, von Frey threshold” value ([1]; 180 picomole, one hour pretreatment) was 100 % MPE, the “MPE, von Frey threshold” value ([1]; 180 picomoles (666 nanograms), 30 minutes post injection) was 93 % MPE and the “MPE, hot plate threshold” value ([2]; 18 picomoles (6.6 nanograms) i.th., one hour pretreatment) was 24 % MPE. For the same substance, the “activity in hot plate threshold” value ([2]; 18 picomoles i.th., 30 minute pretreatment) was “loss of significant activity”, the adverse motor effects ([2]; 180 and 18 picomoles i.th.) was “No adverse motor effects were evident” and the “MPE, hot plate threshold” value ([2]; 180 picomole (66 nanograms) i.th., one hour pretreatment) was 91 % MPE. For the same substance, the “MPE, hot plate threshold” value ([2]; 180 picomoles (666 nanograms) i.th., 30 minute pretreatment) was 70 % MPE, the “Acute Flinches, % control” value [3, 4] was 28% and the “Acute Flinches, absolute level” value [3, 4] was 12. The “Tonic Flinches, % control” value [3, 4] was 32%, the “Tonic Flinches, absolute level” value [3, 4] was 44.3 and the “Tonic Licking, % control” value [3, 4] was 46%. The “Tonic Licking, absolute level” value [3, 4] was 84.3 s, the “Acute Flinches, % control” value [3, 5] was 20% and the “Acute Flinches, absolute level” value [3, 5] was 8.5. For the same substance, the “Tonic Flinches, % control” value [3, 5] was 21%, the “Tonic Flinches, absolute level” value [3, 5] was 29.5 and the “Tonic Licking, % control” value [3, 5] was 8.4%. For the same substance, the “Tonic Licking, absolute level” value [3, 5] was 15.3 s, the “Tonic flinch response, % of control” value [3, 6] was 14 % of control and the “Tonic flinch response, inhibition” value [3, 6] was 86%. For the same substance, the “tonic lick duration, % of control” value [3, 6] was 9 % of control, the “tonic lick duration, reduction” value [3, 6] was 91% and the “Acute Flinches, % control” value [3, 7] was 8.9%. The “Acute Flinches, absolute level” value [3, 7] was 3.8, the “Tonic Flinches, % control” value [3, 7] was 3.0% and the “Tonic Flinches, absolute level” value [3, 7] was 4.3. The “Tonic Licking, % control” value [3, 7] was 0% and the “Tonic Licking, absolute level” value [3, 7] was 0 s.
“YCQKWMWTCDEERKCCEGLVCRLWCKKKIEW (cysteine pairing not given here) [GsAF II]” was tested, and the “MPE, von Frey threshold” value ([1]; 2.33 nanomole (9.27 micrograms), 30 minutes post injection) was 83%, the “rats demonstrating maximal analgesic activity (100% MPE), von Frey” value ([1]; 2.33 nanomole (higher dose), 30 minutes post injection) was 75% and the “MPE, von Frey threshold” value ([1]; 583 picomole (2.32 micrograms), 30 minutes post injection) was 48%. The “MPE, hot plate threshold” value ([2]; 2.33 nanomole (9.27 micrograms) i.th., 15 minutes pretreatment, all animals) was 100 % MPE, the motor coordination problems ([2]; 2.33 nanomole and 583 picomoles i.th.) was “No motor coordination problems were witnessed” and the “average MPE, hot plate threshold” value ([2]; 583 picomoles (2.32 micrograms) i.th., 15 minutes pretreatment) was 59%. For the same substance, the “Acute Flinches, % control” value [3, 8] was 41%, the “Acute Flinches, absolute level” value [3, 8] was 6.8 and the “Tonic Flinches, % control” value [3, 8] was 9.5%. For the same substance, the “Tonic Flinches, absolute level” value [3, 8] was 8.2, the “Tonic Licking, % control” value [3, 8] was 8.2% and the “Tonic Licking, absolute level” value [3, 8] was 7.8 s. The “Acute Flinches, % control” value [3, 9] was 19%, the “Acute Flinches, absolute level” value [3, 9] was 3.25 and the “Tonic Flinches, % control” value [3, 9] was 1.4%. For the same substance, the “Tonic Flinches, absolute level” value [3, 9] was 1.2, the “Tonic Licking, % control” value [3, 9] was 0% and the “Tonic Licking, absolute level” value [3, 9] was 0 s.
